Data published in ChEMBL document CHEMBL1140340 (J Med Chem, 2005).

Key:
[1] = biological target: T1, Sodium-dependent dopamine transporter (Rattus norvegicus, UniProt P23977); experiment: Inhibition of rat brain dopamine transporter as accumulation of [3H]DA; type: functional
[2] = biological target: T2, Sodium-dependent serotonin transporter (Rattus norvegicus, UniProt P31652); experiment: Inhibition of rat brain Serotonin transporter as accumulation of [3H]5-HT; type: functional
[3] = biological target: T1, Sodium-dependent dopamine transporter; experiment: Inhibition of rat brain Dopamine transporter uptake as [3H]DA accumulation; type: functional
[4] = biological target: T2, Sodium-dependent serotonin transporter; experiment: Inhibition of rat brain Serotonin transporter uptake as [3H]5-HT accumulation
[5] = biological target: T3, Norepinephrine transporter (Rattus norvegicus, UniProt Q9WTR4); experiment: Inhibition of rat brain Norepinephrine transporter as accumulation of [3H]NE; type: functional
[6] = biological target: T3, Norepinephrine transporter; experiment: Inhibition of rat brain Norepinephrine transporter as accumulation of [3H]-NE; type: functional
[7] = biological target: Monoamine transporters; Norepininephrine & dopamine (Rattus norvegicus) (UniProt P23977+Q9WTR4); experiment: Ratio between Dopamine transporter and Norepinephrine transporter uptake; type: protein assay
[8] = biological target: Monoamine transporters; Norepinephrine & serotonin (Rattus norvegicus) (UniProt P31652+Q9WTR4); experiment: Ratio between Serotonin transporter and Norepinephrine transporter uptake; type: protein assay
[9] = biological target: Monoamine transporters; serotonin & dopamine (Rattus norvegicus) (UniProt P31652+P23977); experiment: Ratio between Dopamine transporter and Serotonin transporter uptake; type: protein assay
[10] = biological target: T1, Sodium-dependent dopamine transporter; experiment: Inhibition of [3H]WIN-35428 binding to rat brain dopamine transporter

T3 sequence (Q9WTR4 whole entry): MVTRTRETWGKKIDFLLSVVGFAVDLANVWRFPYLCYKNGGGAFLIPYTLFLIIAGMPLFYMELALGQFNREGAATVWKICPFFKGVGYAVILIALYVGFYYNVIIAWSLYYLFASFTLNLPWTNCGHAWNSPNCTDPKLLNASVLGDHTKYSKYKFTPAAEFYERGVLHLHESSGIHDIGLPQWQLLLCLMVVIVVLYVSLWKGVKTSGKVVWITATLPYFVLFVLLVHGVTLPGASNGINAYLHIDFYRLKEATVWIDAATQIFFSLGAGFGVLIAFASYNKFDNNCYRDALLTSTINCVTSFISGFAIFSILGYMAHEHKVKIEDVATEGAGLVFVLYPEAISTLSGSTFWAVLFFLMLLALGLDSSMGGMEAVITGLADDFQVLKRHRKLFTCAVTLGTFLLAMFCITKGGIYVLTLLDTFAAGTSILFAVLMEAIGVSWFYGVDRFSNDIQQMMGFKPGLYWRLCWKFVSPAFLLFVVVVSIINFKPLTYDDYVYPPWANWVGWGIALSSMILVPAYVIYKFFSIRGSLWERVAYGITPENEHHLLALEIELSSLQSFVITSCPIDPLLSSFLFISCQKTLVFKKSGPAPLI
Sequence of Monoamine transporters; serotonin & dopamine (Rattus norvegicus) (P23977 whole entry, looked up): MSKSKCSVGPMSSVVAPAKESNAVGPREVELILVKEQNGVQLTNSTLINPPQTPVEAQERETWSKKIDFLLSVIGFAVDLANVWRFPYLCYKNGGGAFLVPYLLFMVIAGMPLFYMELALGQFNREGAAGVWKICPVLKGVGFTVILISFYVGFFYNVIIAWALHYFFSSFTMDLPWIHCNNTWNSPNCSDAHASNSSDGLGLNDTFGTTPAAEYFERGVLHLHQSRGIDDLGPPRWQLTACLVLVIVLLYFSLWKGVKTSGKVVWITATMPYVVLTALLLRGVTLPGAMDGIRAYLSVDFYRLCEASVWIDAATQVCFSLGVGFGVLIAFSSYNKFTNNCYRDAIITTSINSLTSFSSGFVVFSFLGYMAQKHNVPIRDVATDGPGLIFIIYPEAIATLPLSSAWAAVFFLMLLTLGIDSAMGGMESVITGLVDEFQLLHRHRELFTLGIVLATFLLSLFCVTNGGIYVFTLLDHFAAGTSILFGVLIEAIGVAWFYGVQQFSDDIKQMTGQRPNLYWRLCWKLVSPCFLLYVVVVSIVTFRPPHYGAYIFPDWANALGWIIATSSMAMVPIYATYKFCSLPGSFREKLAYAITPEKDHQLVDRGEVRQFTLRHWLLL
Sequence of Monoamine transporters; serotonin & dopamine (Rattus norvegicus) (P31652 whole entry, looked up): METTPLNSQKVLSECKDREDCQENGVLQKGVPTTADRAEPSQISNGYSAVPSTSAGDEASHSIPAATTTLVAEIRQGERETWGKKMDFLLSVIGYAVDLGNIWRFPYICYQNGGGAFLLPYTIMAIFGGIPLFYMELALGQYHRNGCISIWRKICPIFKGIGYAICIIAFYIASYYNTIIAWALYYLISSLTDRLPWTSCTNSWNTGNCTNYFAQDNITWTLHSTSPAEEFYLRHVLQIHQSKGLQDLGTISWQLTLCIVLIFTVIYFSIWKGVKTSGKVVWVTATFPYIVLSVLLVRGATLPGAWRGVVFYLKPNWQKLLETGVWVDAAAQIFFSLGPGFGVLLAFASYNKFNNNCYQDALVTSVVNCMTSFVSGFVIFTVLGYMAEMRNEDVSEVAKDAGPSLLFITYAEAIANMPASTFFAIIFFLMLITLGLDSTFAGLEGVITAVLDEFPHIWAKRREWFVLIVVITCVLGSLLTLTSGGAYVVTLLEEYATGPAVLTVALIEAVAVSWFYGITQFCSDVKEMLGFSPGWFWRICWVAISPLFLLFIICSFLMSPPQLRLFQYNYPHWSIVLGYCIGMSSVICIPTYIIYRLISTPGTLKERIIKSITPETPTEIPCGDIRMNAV
T1 sequence (P23977 whole entry): as the sequence (P23977 whole entry, looked up) above
T2 sequence (P31652 whole entry): as the sequence (P31652 whole entry, looked up) above

Ki [1] [nM]	Ki [2] [nM]	IC50 [3] [nM]	IC50 [4] [nM]	IC50 [5] [nM]	Ki [6] [nM]	Ratio [7]	Ratio [8]	Ratio [9]	IC50 [10] [nM]	SMILES
446	707	600	862							O[C@@H]1C[C@@H](C(c2ccccc2)c2ccccc2)OC[C@H]1NCc1ccccc1
1940	9560	2610	10600	336	296	6.6	32	0.2	4640	O[C@@H]1CO[C@H](C(c2ccccc2)c2ccccc2)C[C@H]1NCc1ccccc1
					412					COc1ccc(CNC2COC(C(c3ccccc3)c3ccccc3)CC2O)cc1 (single isomer, unassigned)
716	3970	962	4420	3220	2890	0.25	1.4	0.18	1250	OC1COC(C(c2ccccc2)c2ccccc2)CC1NCc1ccccc1 (single isomer, unassigned)
1980	3420	2670	3810	1840	1700	1.2	2	0.58	3750	COc1ccc(CNC2CC(C(c3ccccc3)c3ccccc3)OCC2O)cc1 (single isomer, unassigned)
100	19.7	135	25.4	108	101	0.99	0.2	5.1	298	COc1cc(CN[C@@H]2CO[C@H](C(c3ccccc3)c3ccccc3)C[C@H]2O)cc(OC)c1
253	5500	341	6120						596	OC1CC(C(c2ccccc2)c2ccccc2)OCC1NCc1ccccc1 (single isomer, unassigned)
611	793	822	1070	765	686	0.89	1.2	0.77	771	COc1ccc(CN[C@@H]2C[C@@H](C(c3ccccc3)c3ccccc3)OC[C@H]2O)cc1
317	3210	427	3570	439	406	0.78	7.9	0.099	1050	O[C@@H]1C[C@@H](C(c2ccccc2)c2ccccc2)OC[C@H]1NCCc1ccc(F)cc1
					15.8					COc1ccc(CN[C@@H]2CO[C@H](C(c3ccccc3)c3ccccc3)C[C@H]2O)cc1
528	20.8	710	24	115	95	5.6	0.22	25	1060	COc1ccc(CN[C@@H]2CO[C@H](C(c3ccccc3)c3ccccc3)C[C@H]2O)c(OC)c1
162	2650	218	2950	77.3	71	2.3	37	0.061	443	OC1CC(C(c2ccccc2)c2ccccc2)OCC1NCCc1ccc(F)cc1 (single isomer, unassigned)

SMILES	Ki [1] [nM]	Ki [2] [nM]	IC50 [3] [nM]	IC50 [4] [nM]	IC50 [5] [nM]	Ki [6] [nM]	Ratio [7]	Ratio [8]	Ratio [9]	IC50 [10] [nM]
OC1CC(C(c2ccccc2)c2ccccc2)OCC1NCc1ccc(F)cc1 (single isomer, unassigned)	327	5000	440	5560	1130	1050	0.31	4.8	0.065	1030
O[C@@H]1C[C@@H](C(c2ccccc2)c2ccccc2)OC[C@H]1NCc1ccc(F)cc1	125	607	169	676	13.3	12.2	10.2	50	0.21	308
